Blank lines part the entries; values can stand above or below the compound they belong to.
Legend:
[1] = test system: plasmid DNA pBR 322; test: Protection of plasmid DNA from AAPH damage (agarose electrophoresis); format: biochemical; details: 10 mM AAPH, 37° C., 4 h
Description: The effectiveness of the three compounds to protect DNA from AAPH damage was also determined. The plasmid DNA pBR 322 was incubated with AAPH (final concentration 10 mM) at 37° C. for 4 h with or without antioxidants (final concentrations, 0.35-45 μM), after which the samples were subjected to agarose electrophoresis (Sakihama, Y., et al. Toxicology 2002, 177, 67, incorporated herein by reference in its entirety). […] In the absence of AAPH, pBR 322 was mostly in its supercoiled (S) form (small amount of open circular, O, form was also visible, lane 1 FIG. 25). After reaction with AAPH, the DNA was transformed almost entirely into its open circular form (lane 2, FIG. 25). […] No protection was obtained for both compound 1 and quercetin below 5 μM (lanes 7-10, FIG. 25). […] Compound 3 as well as Trolox were ineffective at all concentrations used in the experiment (0.35-45 μM).
Protection of DNA from free radical damage by the antioxidant dendrimers (compounds 4, 5, and 1) was also evaluated. Plasmid DNA (pBR 322) samples, were incubated with AAPH (final concentration 10 mM) at 37° C. for 4 h with antioxidants (final concentrations, 0.35-45 μM) and subjected to agarose electrophoresis. […] The native DNA was mostly in its supercoiled (S) form (small amount of open circular, O, form was also visible, lane 1, FIG. 31). In the presence of AAPH, the DNA was transformed almost entirely into its O form (lane 2, FIG. 31). […] Negligible DNA protection was afforded by all three dendrimers at ≦2.5 μM (lanes 7-10, FIG. 31). Under similar conditions, Trolox as well as the starting materials for dendrimer synthesis were ineffective at all concentrations.

[2] = test system: pBR 322 DNA with Cu2+; test: Pro-oxidant effect: oxidation of DNA with copper (II) ion; details: 10 μM Cu2+, 37° C., 1 h
Description: The pro-oxidant effect of compounds 1, 2, and 3 was examined by oxidation of DNA with copper (II) ion. pBR 322 was incubated with 10 μM Cu^2+ at 37° C. for 1 h in the presence of compound 1, 2, or 3 (final concentrations between 0.35 and 45 μM). […] Lane 1 is native DNA, and lanes 2-10 are Cu^2+-oxidized DNA with 0, 45, 23, 11, 5, 3, 1.5, 0.7, and 0.35 μM antioxidant, respectively.
This was performed by co-incubation of DNA (pBR 322), copper (II) ion and antioxidant. […] This ultimately forms DNA-Cu(I)OOH, initiating a free radical cascade by which DNA damage occurs. pBR 322 was incubated with 10 μM Cu^2+ in the presence of antioxidants (0-45 μM) at 37° C. for 1 h and subjected to agarose electrophoresis. […] In FIG. 32, lane 1 is native DNA, and lanes 2-10 are Cu^2+ oxidized DNA with 0, 45, 23, 11, 5, 3, 1.5, 0.7, and 0.35 μM antioxidant, respectively. […] However, it should be noted that physiological concentrations of copper are less than 10-20 μM in plasma and approximately […] for the cation in cells.

[3] = DPPH radical assay
Description: The DPPH assay was one of three electron transfer (ET) assays used to determine the antioxidant potential of compound 1 (described in Example 6) in comparison to its monomeric counterpart (syringaldehyde) as well as popular antioxidants. In an ET assay, an antioxidant donates electron(s) to a molecular probe, thus reducing it. From the assay, thermodynamic conversion of antioxidant to antioxidant radical (oxidation) is measured during a fixed time period.
The reduction of DPPH radical was determined for ascorbic acid, Trolox, syringaldehyde, and the compound 1 described in Example 6 as previously reported (Brand-Williams, et al. Lebensm.-Wiss U.-Technol. 1995, 28, 25-30, incorporated herein by reference in its entirety). In the DPPH assay, DPPH• radical was reduced by the antioxidant in methanol (Brand-Williams, et al. Lebensm.-Wiss U.-Technol. 1995, 28, 25-30, incorporated herein by reference in its entirety). […] The DPPH reagent was made in methanol. Antioxidant sample (10 μL) was added to 1.0 mL of reagent and the absorbance was monitored at 515 nm until a plateau was reached. Antioxidant concentrations were 50 μM syringaldehyde, 12.5 μM Trolox and ascorbic acid, and 5 μM compound 1. All samples were made in methanol and run in triplicates at room temperature.
The DPPH• scavenging capacity of each antioxidant was evaluated from the plot of the percentage DPPH• remaining when the kinetics reached a steady state as a function of the molar ratios of antioxidant to DPPH•. […] Using the curve, EC50 (the amount of antioxidant necessary to decrease the initial DPPH• concentration by 50%), antiradical power (1/EC50, ability to reduce the DPPH•), reaction stoichiometry (EC50×2, the concentration of antioxidant required to reduce 100% of DPPH• radical), and the number of reduced DPPH• per antioxidant molecule (1/stoichiometry) for each antioxidant were calculated as previously described (Brand-Williams, et al. Lebensm.-Wiss U.-Technol. 1995, 28, 25-30, incorporated herein by reference in its entirety) and are depicted in Table 1.
Antioxidant capacity of the compounds was assessed by the DPPH assay (Brand-Williams, et al. Lebensm. Wiss. Technol. 1995, 28, 25, incorporated herein by reference in its entirety). […] In FIG. 22, control with methanol is (X, dashed); compound 1 is (□), compound 2 is (•), compound 3 is (◯), and Trolox (Δ). All antioxidant concentrations were 5 μM.
The free-radical scavenging ability of the antioxidants was evaluated by the DPPH assay, as described above in Example 7.

[4] = test system: Human LDL; test: Protection of LDL from AAPH oxidation (agarose gel electrophoresis); format: biochemical; details: 1-30 μM, 20 mM AAPH, 21 h, 37° C.
Excerpt: The antioxidant activity of compounds 1, 2, and 3 towards biomolecules was examined by studying their ability to protect LDL, fatty acid, and DNA from free radicals. For LDL, AAPH was used to induce free radical damage. AAPH was used instead of copper (Cu^2) ion for LDL oxidation so that the free radical scavenging activity of the antioxidants could be measured without any pro-oxidant interference caused by metal ions (Salah, N. et al. Arch. Biochem. Biophys. 1995, 322, 339, incorporated herein by reference in its entirety). All solutions were made in ultra-pure water.
Protection of LDL from AAPH free radicals by the antioxidant decreased the anodic shift in a dose-dependent manner (FIG. 23). […] The increased hydrophobicity of compound 3 may be partly responsible for its improved LDL protection over compound 2.
The antioxidant activity of the antioxidants towards biomolecules was examined by studying their ability to protect LDL, lysozyme, and DNA from free radicals. For LDL, AAPH was used to induce free radical damage. AAPH was used instead of Cu^2+ for LDL oxidation so that the free radical scavenging activity of the antioxidants could be measured without any pro-oxidant interference caused by metal ions. The oxidation of human low-density lipoprotein was used as a model for evaluating the ability of the G1 dendrimers as chain-breaking antioxidants for lipid. Oxidation of LDL leads to changes in both the lipid and the protein moieties of the lipoprotein particle. Lipid peroxidation in LDL has been evaluated by a variety of methods. Due to the complexity of events that occur in lipoprotein oxidation, the electrophoretic migration pattern of oxidized LDL is one of the best methods to evaluate the extent of lipoprotein oxidation. LDL was incubated with 20 mM AAPH and increasing concentrations of the G1 dendrimers (0-37 μM in PBS) for 21 h at 37° C. The mixture was then subjected to agarose gel electrophoresis using the Ciba Corning Clinical Electrophoresis System. The agarose gel was stained with Fat Red 7B. In FIG. 30A (top), lane 1 is native LDL, and lanes 2-8 are AAPH-oxidized LDL with 0, 37, 18.5, 9, 4.5, 2 and 1 μM compound 4, respectively. In FIG. 30B (bottom), lane 1 is native LDL, and lanes 2-8 are AAPH-oxidized LDL with 0, 37, 18.5, 9, 4.5, 2 and 1 μM quercetin or Trolox, respectively.

[5] = ABTS radical cation decolorization assay; format: biochemical
Excerpt: We have tested AO activity of G1 (13) using ABTS as a radical source using a previously reported spectroscopic assay. The AO activity of the G1 (13) was compared to those of syringaldehyde, gallic acid, and vitamin C. If the phenolic OH group is the radical scavenging site, the expected AO activity of the G1 (13) should be 4 fold higher than that of syringaldehyde and 1.3 fold higher than that of gallic acid (which has three phenolic OH groups).
ABTS radical cation decolorization assay was used as previously described (Ozgen, et al. J. Agric. Food Chem. 2006, 54, 1151-1157, incorporated herein by reference in its entirety). Like the DPPH assay, this was also a decolorization assay and measured absorbance decrease at 734 nm as the ABTS radical (ABTS•+) is quenched by the antioxidant. The solvent used for the assay was ethanol. ABTS reagent was added to 1.0 mL solvent in a cuvet to bring the absorbance to 0.7. A 10 μL sample of antioxidant was then added, mixed, and the absorbance monitored at 734 nm for 6 min. Antioxidant concentrations were 14.4 μM Trolox, 11.4 μM ascorbic acid, 15.4 μM syringaldehyde, and 3 μM compound 1. The % decrease in absorbance at 6 min was plotted against antioxidant concentrations. The gradient of the line obtained by linear regression for a given antioxidant was divided by that obtained for Trolox to yield Trolox equivalent antioxidant (TEAC) values. All samples were made in ethanol and run in triplicates and at room temperature.

[6] = FRAP assay (reduction of Fe(III) to Fe(II)); format: biochemical; design: Slope of ΔA593 versus concentration: unit not given here; details: for Slope of ΔA593 versus concentration: 37° C.
Description: The FRAP assay was performed as previously described (Pulido, et al. J. Agric. Food Chem. 2000, 48, 3396-3402, incorporated herein by reference in its entirety). In the FRAP assay, ferric was reduced by the antioxidant to ferrous via electron transfer (Benzie et al., Anal. Biochem. 1996, 239, 70-76, incorporated herein by reference in its entirety). This assay measured the redox potential of an antioxidant which is used as an estimate of antioxidant efficiency and expressed as a FRAP value. […] The compound 1 as well as the other antioxidants was dissolved in methanol. […] Reaction kinetics of the compound 1 and other antioxidants were obtained by plotting the change in slopes at various times and are shown in FIG. 18. […] This time-dependent increase in absorbance was previously reported (Pulido, et al. J. Agric. Food Chem. 2000, 48, 3396-3402, incorporated herein by reference in its entirety) and was especially significant with polyphenolic compounds. […] However, the FRAP value increased with time, reaching 2.5 in 60 min. […] J. Agric. Food Chem. 2000, 48, 3396-3402, incorporated herein by reference in its entirety). […] EC1 values, and therefore ferric reducing ability, were lower at longer reaction times as expected from the kinetic behavior of the antioxidants (Pulido, et al. J. Agric. Food Chem. 2000, 48, 3396-3402, incorporated herein by reference in its entirety).

[7] = Brand-Williams et al.; cited from earlier work

IC50 ([3]; read-out: DPPH IC50 at 120 min, Example 15): 10 µM
Structure (SMILES): O=c1c(O)c(-c2ccc(O)c(O)c2)oc2cc(O)cc(O)c12 [quercetin]
DNA protection ([1]; 5 μM antioxidant): not | DNA protection ([1]; below 5 μM antioxidant): No protection | pro-oxidant DNA damage ([2]; 11-45 μM antioxidant): DNA damage was clearly observed | pro-oxidant effect ([2]; between 3 and 5 μM antioxidant): more pronounced pro-oxidant effect than compound 1 | protection of LDL at all antioxidant concentrations [4]: ineffective

IC50 ([5]; final concentration in the cuvet, read-out: concentration at which 50% inhibition of ABTS•+ was observed): ~13 µM
Structure (SMILES): O=C1O[C@H]([C@@H](O)CO)C(O)=C1O [Ascorbic acid, ascorbic acid]
Antioxidant Capacity Relative to Trolox, ABTS [5]: 0.90 | time to reach a plateau of ABTS•+ absorbance suppression ([5]; 14.4 μM Trolox, 11.4 μM ascorbic acid): one | Slope of % decrease in absorbance at 6 min versus antioxidant concentration ([5]; linear regression, concentration in μM): 3.6 | TEAC ([5]; slope divided by that of Trolox, % decrease in A734 at 6 min, ethanol): 0.9 | Antioxidant Capacity Relative to Trolox, FRAP 5 min ([6]; 5 min): 0.91 | EC1 (concentration with ferric-TPTZ reducing ability equivalent to 1 mM FeSO4.7H2O) ([6]; 5 min): 505 µM | FRAP value relative to Fe(II) ([6]; 5 min, listed as Ascorbic Acid): 2.0 | FRAP value relative to Fe(II) ([6]; 5 min, listed as ascorbic acid): ~2 | FRAP value relative to Fe(II) ([6]; 15 min): 2.1 | FRAP value relative to Fe(II) ([6]; 30 min): 2.3 | Antioxidant Capacity Relative to Trolox, FRAP 60 min ([6]; 60 min): 1.1 | EC1 (concentration with ferric-TPTZ reducing ability equivalent to 1 mM FeSO4.7H2O) ([6]; 60 min): 395 µM | FRAP value relative to Fe(II) ([6]; 60 min): 2.5 | Slope of ΔA593 versus concentration ([6]; Reaction time 5 min): 0.0238 | Slope of ΔA593 versus concentration ([6]; Reaction time 15 min): 0.0255 | Slope of ΔA593 versus concentration ([6]; Reaction time 30 min): 0.0272 | Slope of ΔA593 versus concentration ([6]; Reaction time 60 min): 0.0305 | ARP, previously reported value [7]: 3.70 | Stoichiometry, previously reported value [7]: 0.54 | number of reduced DPPH• per antioxidant molecule, previously reported value [7]: 1.85 | # of DDPH• reduced per antioxidant molecule (1/stoichiometry) [3]: 1.8 | Antioxidant Capacity Relative to Trolox, DPPH [3]: 1
